How the values were obtained:
Type in all cases: cell-based, murine
[1] = system: Fas-SSG; test: Immunoprecipitation of S-glutathionylated Fas (Fas-SSG) after FasL stimulation; settings: FasL-stimulated cells, compared to the respective control (muscimol, DMSO, control siRNA)
Description: (§1) Exposure of cells to FasL: C10 cells were treated with 150 ng/ml FLAG-FasL (Alexis, San Diego, CA), plus 0.5 micrograms/ml anti-FLAG cross linking antibody, M2 (Sigma, St. Louis, MO). Primary lung fibroblasts and MTECs were treated with 300 ng/ml FasL, plus 1 microgram/ml M2. As reagent controls, cells were treated with M2 alone.
Immunoprecipitation of S-glutathionylated Fas: Immunoprecipitation of S-glutathionylated Fas was performed using established techniques.
C10 lung epithelial cells were stimulated with Flag tagged FasL plus anti-Flag (M2) crosslinking antibody, M2 alone (0), and at the indicated times, lysates were prepared and immunoprecipitated (IP) using an anti-GSH antibody. The subsequent western blot was probed with anti-Fas antibody (top panel). The +DTT control reflects lysates prepared from FasL-stimulated cells at 120 min treated with 25 mM DTT prior to IP with the anti-GSH antibody. Bottom panels: Content of Fas and Grx1 in whole cell lysates (WCL). […] C10 lung epithelial cells were stimulated with FasL plus M2 crosslinking antibody, or M2 alone, and at the indicated times, supernatants were collected. Free GSH was measured. * p<0.05 (ANOVA), compared to M2 controls at the same time points.

[2] = system: caspase 8; test: Caspase-Glo 8 assay after FasL stimulation; settings: FasL-stimulated cells, compared to the respective control
Description: as §1
(§2) Caspase-Glo assay: Caspase-8 and caspase-3 activities were measured using a Caspase-Glo 8 and Caspase-Glo 3/7 (Promega, Madison, WI) reagents, respectively according to the manufacturer's protocol (Promega, Madison, WI). Results were expressed in Relative Luminescence Units (RLU), after subtraction of background luminescence values. All results were obtained from 3 independent experiments conducted in triplicate.

[3] = system: caspase 3; test: Caspase-Glo 3/7 assay after FasL stimulation; settings: FasL-stimulated cells, compared to the respective control
Description: as §1, §2

[4] = system: C10 cells; test: Cell viability assay (MTT) after FasL stimulation; settings: MTT assay after stimulation with FasL
Description: Cell viability assay: C10 cells or primary lung fibroblasts were plated in 12-well dishes. The MTT (3-(4,5-dimethylthiazol-2-yl)-2,5-diphenyltetrazolium bromide) assay was performed using known techniques. Results were obtained from 3 independent experiments conducted in triplicate.
Cells were exposed to FasL, and cell lysates processed as in FIG. 1A. Western blots from WCL were sequentially probed for Fas, ERp57 and GSTP1. […] Cells were treated with FasL, and lysates processed as in FIG. 2B. […] Cells were transfected with ERp57 and GSTP1 siRNA (E+P), and 24 hours later were exposed to FasL+M2 crosslinking antibody (FL), or M2 alone for 30 min. Cell lysates were subjected to IP of the DISC. Western blots were sequentially probed for Fas, FADD, procaspase 8, ERp57 and GSTP1. WCL: assessment of the same proteins in whole cell lysates, as a control.

[5] = system: Fas-SH; test: Labeling of free sulfhydryls of Fas (Fas-SH) with MPB, oxidative processing; settings: FasL-stimulated cells
Description: Microscopy: Cells were fixed in 4% formalin and permeabilizied with 0.2% Triton-X100 in PBS. Permeabilized cells were blocked in PBS containing 2% BSA for 1 hour. Cells were sequentially incubated with primary antibodies (1:500-rabbit anti-ERp57/mouse anti-Fas) and secondary antibodies (1:1000-anti-rabbit-Alexa Fluor 488/anti-mouse Alexa Fluor 647). The nucleus was stained with DAPI (1:4000). Images were acquired using a Zeiss LSM 510 META Confocal Laser Scanning Imaging System. Images were captured at 40× magnification in oil immersion. The image files were converted to Tiff format. Brightness and contrast were adjusted equally in all images. Labeling of free sulfhydryls using biotinylated N-ethyl maleimide (MPB): Cells were lysed in HEPES buffer, pH 7.4 containing 0.5% NP40, with 150 micromolar MPB for 1 hour at ambient temperature. Lysates were centrifuged at 14,000 rpm and passed through a microbiospin (Bio-Rad) column to separate free MPB. The eluent whole cell lysate was immunoprecipitated using an anti-Fas antibody and sequentially probed using streptavidin HRP and anti-Fas antibody.
The transmembrane domain is underlined. ELD; extracellular ligand binding domain, CDD; Cytoplasmic Death Domain. […] C10 lung epithelial cells were treated with FasL. The lysates were labeled with MPB, and IPed using an anti-Fas antibody. […]

[6] = system: Fas-SSG; test: Cell fractionation and IP of Fas-SSG (ER vs cytosol/pm); settings: FasL-stimulated cells, vs DMSO vehicle control, FIG. 3D
Description: Cell Fractionation: Cell fractionation was carried out using the Calbiochem ProteoExtractTR (Cat. No. 539790) subcellular proteome extraction kit per the manufacturer's protocol.
Proteins from each fraction were subjected to IP using anti-GSH antibody. Western blots were probed for Fas. 25 micrograms of total protein from each fractions were separated on a SDS-PAGE and probed for Fas, ERp57, GSTP1, Prx1 (cytosolic protein), Flotillinl (Flot1, plasma membrane protein), calreticulin (CRT, an ER restricted protein), histone H3 (nuclear marker). […] Cells were treated with FasL, stained with ERp57, Fas, and the nuclear marker, DAPI. Merged images indicate co-localization of Fas and ERp57. […] Proteins from fractions characterized in FIG. 3A were subjected to IP using anti-GSTP1 antibodies, or control IgG. […] Epithelial cells were treated with FasL, in the presence or absence of Brefeldin A. Cells were fractionated as in FIG. 3A, and proteins from each fraction were subjected to IP using anti-GSH antibody. Western blots were probed for Fas. 25 micrograms of total protein from each fraction was separated on a SDS-PAGE and probed for Fas, ERp57, GSTP1, Prx1 (cytosol), Flot1 (plasma membrane), CRT (ER), H3 (nucleus).

[7] = molecular target: T1, GSTP (Mus musculus, UniProt P19157); test: GST activity assay (CDNB-GST) in treated cells; settings: cells incubated with 50 micromolar for 2 hours, vs 0.2% DMSO, FIG. 5F
T1 construct: endogenous in cells; host or cells: murine lung epithelial cells (C10)
T1 sequence (P19157 2-210): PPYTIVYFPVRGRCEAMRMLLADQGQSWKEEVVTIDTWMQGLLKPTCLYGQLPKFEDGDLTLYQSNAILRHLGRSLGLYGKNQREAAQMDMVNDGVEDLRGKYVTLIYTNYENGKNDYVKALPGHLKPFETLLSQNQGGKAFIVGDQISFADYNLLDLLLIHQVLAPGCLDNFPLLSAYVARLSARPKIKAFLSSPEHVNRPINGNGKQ
Description: GST activity assay: The GST activity was determined using a colorimetric activity assay kit (ab65326, Abcam, Cambridge, MA) based on the GST-catalyzed reaction between GSH and the GST substrate, CDNB (1-chloro-2,4-dinitrobenzene). The GST-catalyzed formation of CDNB-GSH produced a dinitrophenyl thioether which can be detected spectrophotometrically at 340 nm.
(§3) The results are expressed as nmol of CDNB […]/min/mg protein. * p<0.05 (Student t-test) compared to DMSO controls. […] Cells were pre-incubated TLK-199 or DMSO for 2 hours, prior to stimulation with FasL. Lysates were processed as in FIG. 1A. Inhibition of GSTP decreased the activities of caspases 8 (FIG. 5H) and 3 (FIG. 5I) induced by FasL. * p<0.05 ANOVA, compared to DMSO controls. […] Mus: muscimol control. * p<0.05 ANOVA, compared to TNF-alpha+CHX controls.

[8] = system: caspase-3; test: TNF-alpha plus cycloheximide (CHX) induced caspase-3 activation; settings: pre-incubation before TNF-alpha in the presence of cycloheximide, FIG. 5J
Description: as §2
In addition to Fas, the extracellular/ligand binding domains of other members of the TNF receptor superfamily also contained cysteines that form intra-molecular disulfide bridges (—S—S—) to create the ligand binding domain. These experiments therefore determined whether ERp57-mediated oxidative processing regulates TNFR-dependent apoptosis. Cells were incubated with the ERp57 inhibitor, thiomuscimol prior to stimulation with TNF-alpha in the presence of cycloheximide (CHX) to induce apoptosis.
as §3

[9] = system: ERp57; test: Protein disulfide isomerase (PDI) assay, insulin reduction, lysates of treated cells
Description: Protein disulfide isomerase (PDI) assay: 10 micrograms of total cell lysates were incubated with folded insulin, fibril protein binding dye for 1 hr. The fluorescence was then measured in a microplate reader set at a excitation of 500 nm and an emission of 603 nm, per the manufacturer's protocol (Proteostat™ PDI assay kit ENZ-51024-KP002). All results were obtained from 3 independent experiments conducted in triplicate.
Pharmacologic inhibition of ERp57 and GSTP1 decreased Fas-SSG and caspase activation: next, the contribution of the catalytic activities of ERp57 and GSTP in mediating S-glutathionylation of Fas, and subsequent activation of caspases, was asessed.
The results are expressed as relative fluorescence units (RFU). * p<0.05 (Student t-test) compared to muscimol treated cells. […] Cell lysates were processed as in FIG. 1A to determine Fas-SSG (FIGS. 5D and 5E). Inhibition of ERp57 decreased caspase 8, and caspase 3 activities. * p<0.05 ANOVA, compared to muscimol-treated cells.

Compound	Fas-SSG in response to FasL [1]	caspase 8 activity in response to FasL [2]	caspase 3 activity in response to FasL [3]	TNF-alpha/CHX-mediated activation of caspase-3 [8]	other results
CC(=O)OCOC(=O)CN(CC(=O)OCOC(C)=O)c1ccccc1OCCOc1ccccc1N(CC(=O)OCOC(C)=O)CC(=O)OCOC(C)=O [BAPTA-AM]	substantially diminished	decreased	decreased		cell survival / cell death in response to FasL [4]: increased cell survival; Fas-SH content (oxidative processing of Fas) after FasL [5]: completely prevented the loss of Fas-SH groups
C[C@H]1CCC/C=C/[C@@H]2C[C@H](O)C[C@H]2[C@H](O)/C=C/C(=O)O1 [Brefeldin A]					movement of Fas-SSG from ER to cytosol/pm [6]: Fas-SSG remained restricted to the ER fraction
CCOC(=O)[C@@H](N)CCC(=O)N[C@@H](CSCc1ccccc1)C(=O)N[C@@H](C(=O)OCC)c1ccccc1 [TLK199, gamma-glutamyl-S-(benzyl)cysteinyl-R-phenyl glycine diethyl ester]	diminished	diminished	diminished		decrease in GSTP activity [7]: 80%
CC1(C)CC(=O)CC(=O)C1 [dimedone, 5,5-dimethyl-1,3-cyclohexanedione]	abolished				
NCc1cc(=O)[nH]o1 [muscimol]				did not affect apoptosis	
NCc1cc(O)ns1 [thiomuscimol, 5-aminomethyl-3-isothiazolol]	significantly attenuated	corresponding decreases	corresponding decreases	significantly decreased	inhibition of ERp57, as measured by RFU ([9]; FIG. 10, THM vs DMSO, lysates incubated with Bacitracin for 2 hrs as positive control): exhibited inhibition of ERp57; decrease in insulin reducing activity ([9]; epithelial cells incubated with thiomuscimol (10 micromolar), compared to muscimol controls, FIG. 5A): ~50%

From patent publication US12011476B2, “Treatments of oxidative stress conditions” (The University of Vermont and State Agricultural College, priority 2012, dated 2024)
